Data as given in US8912186B2, “Allosteric protein kinase modulators” (Universitaet des Saarlandes, priority 2008, dated 2014).
Values belong to the compound of their own block, whether it stands above or below them.

Legend:
PDK1 [1] = target: T1, PDK1 (Homo sapiens, UniProt O15530); experiment: TNP-ATP fluorescence probe of the ATP binding site conformation; settings: for TNP-ATP fluorescence intensity in the presence of PDK1: addition to the TNP-ATP-PDK1 mixture
T1 construct: maximal fluorescence intensity of TNP-ATP obtained with addition of 15 μM PDK1 CD
T1 sequence (O15530 82-342 limits assumed): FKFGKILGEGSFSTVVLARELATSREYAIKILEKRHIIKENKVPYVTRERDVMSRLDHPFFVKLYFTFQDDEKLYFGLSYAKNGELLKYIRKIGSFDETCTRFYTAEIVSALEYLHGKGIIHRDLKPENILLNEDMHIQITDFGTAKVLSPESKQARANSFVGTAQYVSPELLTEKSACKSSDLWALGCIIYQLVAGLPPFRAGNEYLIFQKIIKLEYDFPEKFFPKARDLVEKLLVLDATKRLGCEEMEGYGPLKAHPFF
Experimental: In order to shed further light on the conformational change induced by the binding of small compounds to the PIF-binding pocket of PDK1, we developed a method to probe the ATP binding site conformation in solution with the use of a fluorescent ATP analogue, trinitrophenyl-ATP (TNP-ATP; FIG. 5A). […] Since the decrease in fluorescence intensity was also measured with phosphorylated HM polypeptides and PIFtide, it is likely that the ATP-binding site conformational change measured was actually related to the equivalent events that activate PDK1 by low molecular weight compounds and HM-polypeptides.
(A) TNP-ATP formulae. (B, C and D) Fluorescence intensities are expressed as % of the maximal fluorescence intensity of TNP-ATP obtained with addition of 15 μM PDK1 CD. (B) Effect of PDK1 addition on TNP-ATP fluorescence. (C) Addition of PS08 to the TNP-ATP-PDK1 mixture triggered a concentration dependent decrease of the fluorescence intensity. At 167 μM PS08 (=PS-T-8), the maximum fluorescence intensity was 60%, similar to TNP-ATP alone. (D) Effect of 167 μM PS133, the isomer compound PS08 to the TNP-ATP-PDK1.

[2] = system: PC3 prostate carcinoma cells; experiment: MTT assay, number of living cells; format: cell-based; settings: 36 h; for number of PC3 cells as compared to the DMSO-treated control (proliferation / cell death): serum starved, IGF-I, 5% FCS
Experimental: Cells were serum starved overnight and stimulated or not with 50 μg/ml IGF-I, then test compounds and 5% FCS were added, and cells grown for 36 h. A standard MTT assay was then performed to measure the number of living cells.
To measure the potency of selected compounds to inhibit growth of a cancer cell line, the widely established MTT assay was used. The assay principle relies on the formation of a purple formazan dye from MTT which has been added to the cultured cells due to mitochondrial reductase activity in intact cells. After 3-4 hours of cell incubation with MTT, formazan crystals develop in living and early apoptotic cells but not in dead cells. MTT is suitable for measuring cell proliferation and cell viability.
Thus the cell's viability critically relies on high activities of this pathway but on the other hand it requires highly efficient inhibitors to hit the cells.

PDK1 [3] = target: T2, PDK1 (Homo sapiens, UniProt O15530); experiment: cell-free kinase activity assay (ATPgamma[32P], T308tide substrate); format: biochemical; settings: n.e.: no effect
T2 construct: GST
T2 sequence (O15530 1-556): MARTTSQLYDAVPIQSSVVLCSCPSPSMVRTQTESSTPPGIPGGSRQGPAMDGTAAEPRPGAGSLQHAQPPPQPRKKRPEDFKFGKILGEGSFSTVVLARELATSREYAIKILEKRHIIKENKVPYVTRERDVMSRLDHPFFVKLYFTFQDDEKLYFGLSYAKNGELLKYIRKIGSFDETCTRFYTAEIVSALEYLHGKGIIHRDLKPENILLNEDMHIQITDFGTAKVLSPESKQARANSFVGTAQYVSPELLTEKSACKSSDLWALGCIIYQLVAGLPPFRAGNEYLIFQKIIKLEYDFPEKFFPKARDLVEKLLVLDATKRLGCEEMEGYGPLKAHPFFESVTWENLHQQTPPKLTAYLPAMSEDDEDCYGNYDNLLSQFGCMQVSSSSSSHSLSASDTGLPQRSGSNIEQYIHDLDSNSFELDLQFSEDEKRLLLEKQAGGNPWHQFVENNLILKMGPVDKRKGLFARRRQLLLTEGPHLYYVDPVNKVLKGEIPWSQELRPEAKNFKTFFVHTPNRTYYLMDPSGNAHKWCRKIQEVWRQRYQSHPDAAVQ
Method in brief: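 Radiometric ATPγ[32P] kinase assay; for PDK1, 200 ng enzyme with 1 mM T308tide substrate, run at room temperature for 30 min. Reaction started with ATP-Mg and stopped with phosphoric acid. Incorporated radioactivity measured after spotting on phosphocellulose paper and washing.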

TNP-ATP fluorescence intensity in the presence of PDK1 (PDK1 [1]): did not affect
Compound: O=C(O)/C=C(\CCc1ccc(Br)cc1F)c1ccccc1 [PS 133, (E)-5-(4-Bromo-2-fluorophenyl)-3-phenylpent-2-enoic acid]

AC50 (PDK1 [3]; concentration of the compound required to activate half maximally): 22.8 µM
max. activation of PDK1 (fold) (PDK1 [3]; maximum activation achievable, compared to the basal activity of PDK1): 2.6 fold
Compound: O=C(O)/C=C(/CSc1ccc(Cl)cc1)c1ccccc1 [PS 99, (E)-4-(4-Chlorophenylthio)-3-phenylbut-2-enoic acid]
concentration at which effects were detectable ([2]; PC3 cells): 10 to 20 µM
number of PC3 cells as compared to the DMSO-treated control (proliferation / cell death) [2]: can inhibit the proliferation of/or induce cell death of cancer cells
number of PC3 cells as compared to the DMSO-treated control (proliferation / cell death) ([2]; listed as PS99): significantly reduced

maximum fluorescence intensity of TNP-ATP (PDK1 [1]; 167 μM compound, % of the maximal fluorescence intensity of TNP-ATP obtained with 15 μM PDK1 CD): 60%
TNP-ATP fluorescence intensity in the presence of PDK1 (PDK1 [1]): concentration-dependent decrease
Compound: O=C(O)/C=C(/CCc1ccc(Br)cc1F)c1ccccc1 [PS-T8, (Z)-5-(4-Bromo-2-fluorophenyl)-3-phenylpent-2-enoic acid]

EC50 ([2]; Homo sapiens, PC-3, PC3 cells, control drug): ~1 µM
Compound: CO[C@H]1C[C@@H]2CC[C@@H](C)[C@@](O)(O2)C(=O)C(=O)N2CCCC[C@H]2C(=O)O[C@H]([C@H](C)C[C@@H]2CC[C@@H](O)[C@H](OC)C2)CC(=O)[C@H](C)/C=C(\C)[C@@H](O)[C@@H](OC)C(=O)[C@H](C)C[C@H](C)/C=C/C=C/C=C/1C [rapamycin, reference compound]
